Test results as given in patent publication US12702670B2, “Compositions and methods for treating breast cancer” (The Regents of the University of California, priority 2020, dated 2026).
“Also recorded” adds a separate entry of the source.

Legend:
[1] = tested on: IGF2-expressing TNBC cells; conditions: in vitro; statement carries reference 1; cited from earlier work
murine 4T1 TNBC = assay: Cell viability of murine 4T1 TNBC in vitro; assay type: cell-based
Experimental: After seeding TNBC cells for 24 hr, cells were exposed to selected combinations of BMS-754807 (20 μM), enzalutamide (20 μM), and NVP-AEW541 (8 μM) for 72 h. Cell viability was tested by CellTiter 96® aqueous non-radioactive cell proliferation assay (error bar=SEM; n=8; **P<0.001 *P<0.05). Results shown as % of vehicle treated controls.

AR = AR levels in TNBC cells; assay type: cell-based; conditions: in vitro
[2] = tested on: IGF2-expressing TNBC cells; assay: TNBC cell proliferation in vitro; assay type: cell-based, human; conditions: alone and combined
4T1 TNBC cells = assay: Murine 4T1 TNBC model in syngeneic BALB/c mice; assay type: in vivo
Experimental: FIG. 6A-D show a combination treatment of BMS with anti PD-L1 checkpoint antibody suppresses 4T1 TNBC xenograft progression in vivo. TNBC 4T1 cells (2×105) were implanted in the mammary fat pads of BALB/c female mice (6-week old) using established methods. Mice were then randomized for treatment when tumor volumes were approx. 200 mm3. Mice were treated with either vehicle control (Con), BMS 10 mg/kg, by oral gavage, daily (BMS), anti-PD-L1 checkpoint antibody from Biolegend (anti-CD274/B7-H1/PD-L1 clone 10F.9G2, 100 μg/mouse IP in PBS, Q3 days) (Ab) or combination therapy with BMS and anti-PD-L1 antibody (BMS+Ab). Tumor sizes were recorded Q 2-3 days; and mice were weighed twice weekly. Studies used 5 mice/group.
TNBC clinical trials have shown a potential benefit of anti-PD-L1 antibodies as ICIs for anti-TNBC therapy. […] Thus, 4T1 cells were implanted in mammary fat pads of female syngeneic BALB/c mice to assess antitumor efficacy of BMS-754807 alone and combined with anti-PD-L1 antibodies in mice with intact immune systems (FIG. 6). After 10 days of treatment, tumors were harvested and processed for mass cytometry analyses to assess changes in immune cell subsets under different treatment conditions in FIG. 6.

[3] = tested on: MDA-MB-231 TNBC cell line; assay: Scratch wound migration assay (IncuCyte S3); assay type: cell-based, human; conditions: media conditioned with IGF2 alone (100 ng/ml), 48 h
Experimental: (§1) MDA-MB-231 and HCC 1937 TNBC cell lines were cultured in complete media in 96-welled plates. In each well 60,000 cells were plated. Scratch wounds were made using Unique WoundMaker™. Wound images were collected every 2 h for 48 h using the IncuCyte S3 Live-Cell Analysis System. Media containing IGF2 (100 ng/ml) was refreshed daily. […] Magnification 100×. P<0.05. […] Magnification 100×. P<0.05. FIGS. 4C & D show conditioned media containing a combination of IGF1R/IR antagonists. […] BMS/NVP=BMS-754807 (20 uM) and NVP-AEW541 (8 uM).
(§2) In vitro TNBC cell migration is stimulated in media conditioned with IGF2 alone (FIGS. 4A & 4B).

HCC 1937 TNBC cell line = assay: Scratch wound migration assay (IncuCyte S3); assay type: cell-based; conditions: media conditioned with IGF2 alone (100 ng/ml), 48 h
Experimental: as §1, §2

C[C@@]1(C(=O)Nc2ccc(F)nc2)CCCN1c1nc(Nc2cc(C3CC3)n[nH]2)c2cccn2n1 [BMS-754807]
human TNBC cell proliferation [1]: reduce human TNBC cell proliferation
cell viability (murine 4T1 TNBC): Reduction of cell viability
levels of ARs in TNBC cells (AR): decrease levels of ARs
anti-proliferative effects on IGF2-expressing TNBC cells [2]: anti-proliferative effects
tumor volume / TNBC progression (4T1 TNBC cells; BALB/c mice, 4T1 in mammary fat pads, BMS 10 mg/kg oral gavage daily, anti-PD-L1 antibody 100 μg/mouse IP Q3 days): markedly reduced tumor volume; also recorded: significant antitumor effects
myeloid derived suppressor cells (MDSCs), total and PMN-MDSC, in tumors (4T1 TNBC cells; mass cytometry of 4T1 tumors harvested after 10 days of treatment, BMS 10 mg/kg oral daily, Ab 100 μg IP Q3 days): decreased levels
effector CD8+ and CD4+ tumor infiltrating lymphocytes (TILs) (4T1 TNBC cells; mass cytometry of 4T1 tumors, BMS 10 mg/kg oral daily, Ab 100 μg IP Q3 days): significantly increased

Nc1ncnc2c1c(-c1cccc(OCc3ccccc3)c1)cn2C1CC(CN2CCC2)C1 (centres unmarked) [NVP-AEW541]
levels of ARs in TNBC cells (AR): decrease levels of ARs
anti-proliferative effects on IGF2-expressing TNBC cells [2]: anti-proliferative effects

IGF2: insulin-like growth factor 2, hormone added to media at 100 ng/ml
cell migration [3]: stimulated
cell migration (HCC 1937 TNBC cell line): stimulated
